Test results reported in PMC4993737, “Antibacterial activity identification of pCM19 and pCM12 derived from hGlyrichin” (SpringerPlus, 2016).

Columns and labels:
[1] = tested on: E. coli BL21 Amp^R; test: Bacteria colony counting method; assay type: cell-based, Escherichia coli; conditions: 100 µg peptide, 37 °C 2 h, plated, colonies counted after 12–18 h, n = 5, numbers only in Fig. 1b
Experimental: (§1) The antimicrobial activity assays were completed in a specialized laboratory. Red blood cells were collected from healthy adults at the 307 hospital laboratory. All participants gave informed consent to participate in the study.
(§2) Twenty microliters of the culture was diluted in LB (final volume 1 ml) and was evenly coated on an LB plate, inverted and incubated at 37 °C for 12–18 h and then the bacterial colonies were counted.

[2] = tested on: E. coli BL21; test: Bacteria colony counting method; assay type: cell-based, Escherichia coli; conditions: 100 µg peptide, 37 °C 2 h, plated, colonies counted after 12–18 h, n = 5, numbers only in Fig. 1a
Experimental: as §1, §2

[3] = tested on: S. aureus (ATCC 25923); test: Bacteria colony counting method; assay type: cell-based, Staphylococcus aureus; conditions: 100 µg peptide, 37 °C 2 h, plated, colonies counted after 12–18 h, n = 5, numbers only in Fig. 1c
Experimental: as §1, §2

[4] = tested on: S. aureus Amp^R (ATCC BAA-44); test: Bacteria colony counting method; assay type: cell-based, Staphylococcus aureus; conditions: 100 µg peptide, 37 °C 2 h, plated, colonies counted after 12–18 h, n = 5, numbers only in Fig. 1d
Experimental: as §1, §2

[5] = tested on: S. Typhi (ATCC 19430); test: Bacteria colony counting method; assay type: cell-based, Salmonella Typhi; conditions: 100 µg peptide, 37 °C 2 h, plated, colonies counted after 12–18 h, n = 5, numbers only in Fig. 1e
Experimental: as §1, §2

[6] = tested on: human red blood cells; test: In vitro hemolysis assay; assay type: cell-based; conditions: 1 h 37 °C, even at a much higher concentration than the effective antibacterial dose (up to 3000 µg/ml)
Experimental: as §1
Blood samples from healthy donors were treated with heparin to minimize clotting. The blood cell was washed three times with normal saline, and 8 µl samples were diluted to 100 µl in normal saline. The diluted blood cell (100 µl) was incubated with 100 µl of pCM19 (3000 µg/ml) for 1 h at 37 °C; then the same volume diluted blood cell was incubated with 100 µl of pCM12 (100, 200, 500, 1000, 2000, 3000 µg/ml) for 1 h at 37 °C. Centrifugation was carried out at 1000 rpm for 5 min at 4 °C. Each treatment was performed in triplicate. The absorbance of each sample was measured at 570 nm using a microplate reader.

Substance | antibacterial activity by colony counting [1] | antibacterial activity by colony counting [2] | antibacterial activity by colony counting [3] | antibacterial activity by colony counting [4] | antibacterial activity by colony counting [5] | damage to red cell membranes (hemolysis), in words [6]
GICRLMMRRGLE [RC, a random array of pCM12] | almost completely lost its bactericidal activity | almost completely lost its bactericidal activity | almost completely lost its bactericidal activity | almost completely lost its bactericidal activity | almost completely lost its bactericidal activity | –
CLRIGMRGREL [pCM11, pCM12 with the last amino acid residue removed] | lost its antibacterial activity | lost its antibacterial activity | lost its antibacterial activity | lost its antibacterial activity | lost its antibacterial activity | –
CLRIGMRGRELM [pCM12, 12 amino acids of pCM19 from which 7 amino acids at the carboxyl terminal were removed] | good inhibition and killing | effectively inhibited the growth | effectively inhibited the growth | good inhibition and killing | effectively inhibited the growth | caused no damage to the red cell membranes
GGIGKTM [flexible peptide, a GIG array, the portion that is different between pCM19 and pCM12] | almost completely lost the antibacterial activity | almost completely lost the antibacterial activity | almost completely lost the antibacterial activity | almost completely lost the antibacterial activity | almost completely lost the antibacterial activity | –
CLRIGMRGRELMGGIGKTM [pCM19, 19 amino acids from positions 42 to 60 of hGlyrichin] | good inhibition and killing | effectively inhibited the growth | effectively inhibited the growth | good inhibition and killing | effectively inhibited the growth | caused no damage to the red cell membranes
